According to patent US8415095B2, “Use of nucleoside derivatives comprising a citrate group for the production of antibodies having an affinity for triphosphorylated nucleosides” (Centre National de la Recherche-Scientifique-CNRS, priority 2003, dated 2013):
Several values for one entry are separate records, joined by “and”; a condition that tells them apart may be missing. Equal entries are not always repeated.

Assays:
[1] = test system: anti-isostere antibody of ddATP; test: Radioimmunological determination (RIA) of the specificity of the anti-isostere antibody of ddATP, tracer ddA-HS-K-125IY; design: species or system rabbit; conditions: concentration of non-tagged antigen which inhibits 50% of the antigen-antibody binding
Text: The polyclonal antibodies were produced in the rabbit, according to standard methods.
The antibodies having an affinity for the ddNTP derivatives can be identified by immunological techniques either by means of immunoenzymatic determinations or by means of radioimmunological determinations (RIA).
The specificity of these antibodies was studied in relation to different analogues of ddATP.

[2] = human, in vivo
Procedure: Blood samples were collected from patients infected with HIV-1 and undergoing treatment comprising administration of ddI. The patients were under the supervision of Professor P. Dellamonica at the Archet Hospital in Nice. The blood samples were collected using cell preparation tubes (CPT) at the rate of two 4-ml tubes for each of the 4 patients participating in this study. Quantification of the ddI in the plasma was performed for each patient and expressed in ddI equivalents. Intracellular quantification of ddATP was performed after chromatography (on Sep Pak anionic cartridge) of the cellular lysates. For each fraction (500 μl), the cellular content of ddATP was determined directly and expressed in ddATP equivalents; quantification was then performed after dephosphorylation and expressed in ddA equivalents.

blood monocyte cells = test: In vitro cell model: blood monocyte cells incubated with ddI, RIA of supernatant ddI and intracellular ddATP after Sep Pak anionic cartridge; assay type: in vitro ADME, human; conditions: for Intracellular content in ddATP eq. (pmoles/10^6) cells: fractions 32-37
Procedure: Separation by anionic chromatography of the different phosphorylated metabolites stemming from the cellular metabolism of the ddI (ddIMP, ddAMP, ddADP and ddATP) was performed on Sep Pak anionic cartridge by means of a stepwise gradient using different concentrations of KCl (6 ml KCl 50 mM, 10 ml KCl 100 mM and 6 ml KCl 250 mM).
A certain number of controls were performed on an in vitro cell model. After separation by density gradient on Ficoll, the blood monocyte cells were incubated with different concentrations of ddI in the RPMI (at the level of 5×10^5 cells per ml).
The immunoreactivity present in the supernatant was expressed in equivalents (eq.) ddI established in relation to a ddI reference curve, and illustrated in Table 2 below. The ddATP immunoreactivity corresponds to the sum of the immunoreactivities present in the fractions 32-37 stemming from the separation of the intracellular contents on Sep Pak anionic cartridge. The immunoreactivity was expressed in ddATP equivalents in relation to a ddATP reference curve, and is also illustrated in Table 2 below.
The nature of the immunoreactive material present in the culture supernatant and in the intracellular medium was controlled by chromatography on a Sep Pak anionic cartridge. and detected by radioimmunological quantitation. […] This is shown in attached FIG. 2.

Row | Compound | IC50 [1] [µM] | also measured
1 | Nc1ncnc2c1ncn2[C@H]1CC[C@@H](CO)O1 [ddA, 2′,3′-dideoxyadenosine] | 0.0004 | –
2 | Nc1ncnc2c1ncn2C1CC(O)C(CO)O1 (centres unmarked) [dA] | 0.3 | –
3 | Nc1ccn([C@H]2CC[C@@H](CO)O2)c(=O)n1 [ddC] | > 1000 | –
4 | Nc1ncnc2nc[nH]c12 [adenine] | 9 | –
5 | Nc1ccn(C2CSC(CO)O2)c(=O)n1 (centres unmarked) [3TC, 2′,3′-dideoxyo-3′-thiacytidine] | 200 | –
6 | O=c1[nH]cnc2c1ncn2[C@H]1CC[C@@H](CO)O1 [ddI] | 0.002 | plasma concentrations [2]: 2-6×10^−6; intracellular immunoreactive content eluted in the elution volume of ddATP (yield) (blood monocyte cells; Sep Pak anionic cartridge): 92%; share of supernatant immunoreactivity in fractions 1 to 5 (elution volume of ddI) (blood monocyte cells; culture supernatants n=4, Sep Pak anionic cartridge): 100%; Concentration of ddI of the supernatant in ddI eq. (blood monocyte cells; incubated ddI 1 × 10^−4 M): 130 µM and 150 µM; Concentration of ddI of the supernatant in ddI eq. (M) (blood monocyte cells; incubated ddI 1 × 10^−5 M): 3.8 ± 0.34 × 10^−5 (n = 2) M; Intracellular content in ddATP eq. (pmoles/10^6) cells (blood monocyte cells; incubated ddI 1 × 10^−5 M): 10.4 ± 0.6 (n = 2) pmoles/10^6 cells; Concentration of ddI of the supernatant in ddI eq. (M) (blood monocyte cells; incubated ddI 1 × 10^−7 M): 2.74 × 10^−7 (n = 1) M; Intracellular content in ddATP eq. (pmoles/10^6) cells (blood monocyte cells; incubated ddI 1 × 10^−7 M): 0.15 (n = 1) pmoles/10^6 cells; Concentration of ddI of the supernatant in ddI eq. (M) (blood monocyte cells; incubated ddI 5 × 10^−6 M): 5.74 × 10^−6 (n = 1) M; Intracellular content in ddATP eq. (pmoles/10^6) cells (blood monocyte cells; incubated ddI 5 × 10^−6 M): 1.8 (n = 1) pmoles/10^6 cells; ddI in the cells (blood monocyte cells; no immunoreactive material at the retention time of ddI): not detectable
7 | Nc1ncnc2c1ncn2C1CCC(COC(=O)CC(O)(CC(=O)O)C(=O)O)O1 (centres unmarked) [isostere of ddATP, 5′-O-(3,4-dicarboxy-3-hydroxy)butanoate-2′,3′-didesoxyadenosine] | 5.2e-05 | –

The next lines start with results.

Row | IC50 [1] [µM] | Compound | also measured
8 | 0.0011 | Nc1ncnc2c1ncn2[C@H]1CC[C@@H](COP(=O)(O)OP(=O)(O)OP(=O)(O)O)O1 [ddATP, 2′,3′-didesoxyadenosine-5′-triphosphate] | –
9 | 2.4 | Nc1ncnc2c1ncn2[C@@H]1O[C@H](CO)[C@@H](O)[C@H]1O [adenosine] | –
10 | 36 | Nc1ncnc2c1ncn2[C@@H]1O[C@H](COP(=O)(O)OP(=O)(O)OP(=O)(O)O)[C@@H](O)[C@H]1O [ATP] | –
11 | > 1000 | Nc1ncnc2c1ncn2[C@@H]1O[C@H](COP(=O)(O)O)[C@@H](O)[C@H]1O [AMP] | –
12 | > 1000 | Nc1ncnc2c1ncn2[C@@H]1O[C@H](COP(=O)(O)OP(=O)(O)O)[C@@H](O)[C@H]1O [ADP] | –
